This note sets out measurements from PMC5908784, “Extracellular loops 2 and 3 of the calcitonin receptor selectively modify agonist binding and efficacy” (Biochemical Pharmacology, 2018).

Assay in all cases: Heterologous whole cell competition binding
Common to all, as to details: heterologous competition of 125I-sCT(8-32), whole cells, mean ± S.E.M., SEM

The target in one test is T1, hCTR N365A (Homo sapiens, UniProt P30988, N365A).
T1 construct: c-Myc (N); expressed in transfected cells
T1 sequence (P30988 25-474 N365A): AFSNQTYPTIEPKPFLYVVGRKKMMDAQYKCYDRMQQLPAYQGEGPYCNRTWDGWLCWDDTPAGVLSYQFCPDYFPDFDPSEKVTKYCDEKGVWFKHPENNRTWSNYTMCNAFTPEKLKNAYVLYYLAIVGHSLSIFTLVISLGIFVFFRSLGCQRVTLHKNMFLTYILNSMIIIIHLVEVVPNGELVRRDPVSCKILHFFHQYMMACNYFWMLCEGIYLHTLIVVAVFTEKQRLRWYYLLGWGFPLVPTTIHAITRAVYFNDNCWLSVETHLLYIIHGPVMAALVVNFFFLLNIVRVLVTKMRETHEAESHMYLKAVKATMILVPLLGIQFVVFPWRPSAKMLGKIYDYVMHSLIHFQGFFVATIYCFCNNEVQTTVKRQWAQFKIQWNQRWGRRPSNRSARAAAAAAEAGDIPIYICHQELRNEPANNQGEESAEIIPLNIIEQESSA
The method in brief: (§1)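 Reported pKi values come from whole-cell displacement of a radiolabelled tracer, incubated overnight and quantified by gamma counting after washing out free ligand, with correction for tracer occupancy (Cheng-Prusoff).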

A further test concerns the target T2, hCTR L297A (Homo sapiens, UniProt P30988, L297A).
T2 construct: c-Myc (N); expressed in transfected cells
T2 sequence (P30988 25-474 L297A): T1 sequence (P30988 25-474 N365A) with L273A, A341N
The method in brief: as §1

The next test addresses T3, hCTR M367A (Homo sapiens, UniProt P30988, M367A).
T3 construct: c-Myc (N); expressed in transfected cells
T3 sequence (P30988 25-474 M367A): T1 sequence (P30988 25-474 N365A) with A341N, M343A
The method in brief:
as §1

The target of a further test is T4, hCTR F356A (Homo sapiens, UniProt P30988, F356A).
T4 construct: c-Myc (N); expressed in transfected cells
T4 sequence (P30988 25-474 F356A): T1 sequence (P30988 25-474 N365A) with F332A, A341N
The method in brief:
as §1

For another test, the target named is T5, hCTR Y374A (Homo sapiens, UniProt P30988, Y374A).
T5 construct: c-Myc (N); expressed in transfected cells
T5 sequence (P30988 25-474 Y374A): T1 sequence (P30988 25-474 N365A) with A341N, Y350A
The method in brief: as §1

Positions count from the first letter of the chain named. Where a SMILES comes first, the peptide text is derived from it. Bridges are numbered along the chain shown (N, C = ends).

In general, Ki refers to the equilibrium dissociation constant of an inhibitor or competing ligand from its target. As to `CSCC[C@H](NC(=O)CNC(=O)[C@H](CO)NC(=O)[C@H](Cc1ccccc1)NC(=O)[C@H](CCCNC(=N)N)NC(=O)[C@H](Cc1c[nH]cn1)NC(=O)[C@H](Cc1ccccc1)NC(=O)[C@H](CC(N)=O)NC(=O)[C@H](CC(N)=O)NC(=O)[C@H](CC(C)C)NC(=O)[C@H](CC(N)=O)NC(=O)[C@H](CCCNC(=N)N)NC(=O)[C@H](Cc1c[nH]c2ccccc12)NC(=O)[C@H](Cc1ccc(O)cc1)NC(=O)[C@H](C)NC(=O)[C@H](CO)NC(=O)[C@H](CC(C)C)NC(=O)[C@@H](NC(=O)[C@@H]1CSSC[C@H](N)C(=O)N[C@@H](CO)C(=O)N[C@@H](CC(N)=O)C(=O)N[C@@H](CC(C)C)C(=O)N[C@@H](CO)C(=O)N[C@@H]([C@@H](C)O)C(=O)N1)C(C)C)C(=O)NCC(=O)N[C@@H](Cc1ccccc1)C(=O)NCC(=O)N1CCC[C@H]1C(=O)N[C@@H](CCC(=O)O)C(=O)N[C@H](C(=O)N1CCC[C@H]1C(N)=O)[C@@H](C)O` [pCT] (H-CSNLSTCVLSAYWRNLNNFHRFSGMGFGPETP-NH2; disulfide 1-7), the Ki is 2.09 nM at hCTR N365A; 15.5 nM at hCTR L297A; 21.4 nM at hCTR M367A; 12 nM at hCTR F356A; 5.89 nM at hCTR Y374A.
